Test results published in article PMC11329928, “Design, synthesis and structure-activity relationship (SAR) studies of an unusual class of non-cationic fatty amine-tripeptide conjugates as novel synthetic antimicrobial agents” (Frontiers in Pharmacology, 2024).
Counter-ions that a name gives are not always drawn.

Key:
[1] = system: human fetal lung fibroblasts IMR-90; type: cell-based; details: 48 h
Experimental: DICAM’s cytotoxicity was determined employing a modified MTT assay as described elsewhere ([Antúnez-Mojica et al., 2016]) using human lung carcinoma epithelial cells A549, human fetal lung fibroblasts IMR-90, and human HeLa cervix carcinoma cells treated with increasing concentrations of DICAMs (0.8–200 µM range). A549 cells were grown in RPMI 1640 (Gibco; Fisher Scientific, Spain) supplemented with 10% FCS, 2 mM glutamine, 100 IU/mL penicillin and 100 μg/mL streptomycin. IMR-90 and HeLa cells were cultured in DMEM (Gibco; Fisher Scientific, Spain) supplemented with 10% FCS, 2 mM L-glutamine, 1 mM pyruvate, […] penicillin, 100 μg/mL streptomycin and 40 μg/mL gentamycin. Cell viability was assessed after 48 h exposure to DICAMs. Vinblastine was used as a positive control. IC50 value is the concentration that gives 50% inhibition of cell growth and was determined using SigmaPlot (Systat) fitting to a Four Parameter Logistic curve.

Streptococcus pyogenes T = experiment: Growth inhibition screening of planktonic cultures (OD550/600); type: cell-based; parameters: key: (+++) full inhibition; (++) partial inhibition; (+) growth retardation; -: (−) no effect; details: S. pyogenes T, 50 and 100 μM compound added at T1, OD550/600 followed 10 h, 37°C
Experimental: (§1) Planktonic cultures of selected pathogens (S. pneumoniae R6, S. pyogenes ^T, Staphylococcus aureus ^T, Escherichia coli DH10B, and Pseudomonas aeruginosa PAO1 strains) on early logarithmic-phase (T1) were assayed for their sensitivity to a broad range of DICAM compounds, as indicated in Table 1. Their bacteriostatic or lytic effect was first tested by measuring the variation of the OD550/600 as a function of time (10 h) when (50/100 μM) DICAMs were added, compared to untreated controls. The screening results, summarized in Table 1, evidenced that a potent antimicrobial activity may exist even when the negative charge of the peptide was higher than in the prototype compounds.
(§2) Susceptibility to DICAMs was first tested by growth-inhibition assays at 50 and 100 μM of compound. Briefly, working solutions at 5 mM or 10 mM DICAM in pure DMSO were prepared from DICAM stocks (40 mM in pure DMSO) and diluted with fresh culture medium to 5× the desired final concentration. Aliquots (50 µL) of these solutions were added to 200 µL of bacterium cultures grown to early exponential phase (OD550/600 c. a. 0.15–0.2 in sterile 96-well plates (Cultek, Spain). Incubation continued for 10 h at 37°C and turbidity (OD550/600) values were measured every 20 min to monitor growth and lysis, using a VersaMax microplate reader (Molecular Devices; United Kingdom). Next, the activity dependence on DICAM’s dose was examined by measuring the turbidity of treated and untreated cultures as a function of time. Also, the decay of bacterial viability (CFU/mL) at selected times of treatment was assessed by colony counting on LB-agar or TSA plates after overnight incubation at 37°C. By default, 10 μL of 10-fold serially diluted samples were plated, which set the lower detection limit at 10^2 CFU/mL (10^1 CFU/mL when 100 μL of the undiluted sample was seeded).

[2] = system: Streptococcus pneumoniae R6; experiment: Growth inhibition / lysis screening of planktonic cultures (OD550/600); type: cell-based; parameters: key: (+++) full inhibition; (++) partial inhibition; (+) growth retardation; -: (−) no effect; details: S. pneumoniae R6, 50 and 100 μM compound added at early logarithmic phase (T1), OD550/600 followed 10 h, 37°C
Experimental: as §1, §2

S. pneumoniae D39 = type: cell-based, Streptococcus pneumoniae; details: for SC (stationary concentration, Δlog = 0), S. pneumoniae D39 / EC50 / Δlogmax, S. pneumoniae D39: 1 h treatment, Hill fit; for SC (stationary concentration, Δlog = 0), S. pneumoniae D39: C + Y medium, added at T1, 10^7–10^8 CFU/mL, CFU vs untreated controls; for EC50 / Δlogmax, S. pneumoniae D39: C + Y; for EC50: read-out: K 1/2 (concentration yielding half-variation in Δlogmax), S. pneumoniae D39 (converted); for Δlogmax, S. pneumoniae D39: maximum variation in viability; for Reduction of the number of viable cells at 3 × SC, S. pneumoniae: after 1-h incubation at 3 × SC values
Description: First, the substitution of the fatty amino chain of 18 carbon atoms of the reference compound DICAM 2 by either an OMe group (methylated tripeptide DICAM 5) or an amine with 12 carbon atoms (DICAM 9) abolished the activity against all three pathogens. However, the activity remained intact when the chain of the fatty amine of prototypes DICAMs 1 and 4 was two carbon atoms shorter (DICAM 10 and DICAM 12, respectively), based on S. pneumoniae and S. pyogenes results. […] Third, Glu and Ala were tolerated as C-terminal residues of the lipotripeptides. […] In addition, deletion of the C-terminal Glu (DICAM 13) eradicated the activity against S. pneumoniae and S. aureus. However, a delay and small inhibition of S. pyogenes ^T growth was still observed. Fourth, Glu (DICAMs 19 and 20) and Orn (DICAMs 21 and 22) were tolerated as N-terminal residues, with the impact of these modifications being pathogen-dependent. […] SAR studies continued by measuring the dose dependence of DICAM’s activity at T1 with all the compounds found to be active against S. pyogenes or S. aureus in the initial screening, and all but one compound in the case of S. pneumoniae. The OD values of bacterial cultures were monitored after DICAM addition, and the decrease in the number of viable bacteria was measured relative to controls (Figures 4–6; Supplementary Figure S1). As antibacterial efficacy may decline with the bacterium dose in the inoculum ([Belley et al., 2009]; [Udekwu et al., 2009]; [Luca et al., 2013]), the assays were performed using the bacterial concentrations necessary for the fluorescence experiments in Section 2.3 (10^7–10^8 CFU/mL). At these high bacterial densities, MICs were determined as the DICAM concentration at which bacteria neither grow nor are killed (the stationary concentration (SC)), following [Udekwu et al., 2009]. By fitting the logarithmic plot of cell viability decrease vs. the DICAM dose to a Hill function (see Section 5.2.3.1) we were able to determine the maximum variation in viability (Δlogmax = ∆log f - ∆log 0, where ∆log f and ∆log 0 are the upper and lower limits of Δlog) in the assay conditions, the SC concentration (Δlog = 0), the dose required for half-variation in Δlogmax (K 1/2), and the cooperativity of the antimicrobial effect (N H).
as §2
As antibacterial efficacy may decline with the bacterium dose in the inoculum ([Belley et al., 2009]; [Udekwu et al., 2009]; [Luca et al., 2013]), activity assays were performed using the bacterial concentrations required for the fluorescence experiments in Section 2.3 (10^7–10^8 CFU/mL). At such bacterial densities, MICs were determined as the DICAM concentration at which bacteria neither grow nor are killed under assay conditions (the stationary concentration (SC)), as indicated in Section 2.2. […]

[3] = S. pneumoniae D39, 50 μM (Supplementary Figure S1F), C+Y, 37°C
[4] = S. pneumoniae D39, within 60 min

| Structure (SMILES) | IC50 [1] [µM] | Growth halt or lysis (50/100 μM), Spy T (Streptococcus pyogenes T) | Growth halt or lysis (50/100 μM), Spn [2] | SC (stationary concentration, Δlog = 0), S. pneumoniae D39 (S. pneumoniae D39; 37°C) | EC50 (S. pneumoniae D39; 37°C) [µM] | Time required to reduce the viability by 99.99% (S. pneumoniae D39; [3]) [h] | Viability decrease in 1 h (S. pneumoniae D39; [3]) | Δlogmax, S. pneumoniae D39 (S. pneumoniae D39; 37°C) [logarithmic units] | Reduction of the number of viable cells at saturating doses (S. pneumoniae D39; [4]) [log-units] | Reduction of the number of viable cells at 3 × SC, S. pneumoniae (S. pneumoniae D39) | Cell killing after 60 min of incubation (S. pneumoniae D39; [3]) [%] | Time to nearly sterilize the culture (S. pneumoniae D39; S. pneumoniae D39, 50 μM, C+Y, 37°C, legend of Supplementary Figure S1F) | Bacterial viability reduction at ≈ 5 μM (S. pneumoniae D39; S. pneumoniae D39, within 60 min, ≈ 5 μM) [%] | Bacterial viability reduction at 10 μM (S. pneumoniae D39; S. pneumoniae D39, within 60 min, 10 μM) [%] |
| --- | --- | --- | --- | --- | --- | --- | --- | --- | --- | --- | --- | --- | --- | --- |
| CCCCCCCCCCCCCCCCCCNC(=O)[C@H](CCC(=O)O)NC(=O)[C@H]1CCCN1C(=O)[C@H](CC(N)=O)NC(=O)OCc1ccccc1 [DICAM 1, Cbz-Asn- Pro -Glu-NH-C18H37] | 39 ± 1 | +++ | +++ | 2 ± 0.2 µM | 3.8 ± 0.2 | 2 to 2.5 | ≈ 90% | 2.05 ± 0.03 |  |  |  |  |  |  |
| CCCCCCCCCCCCCCCCCCNC(=O)[C@H](CCC(=O)O)NC(=O)[C@H]1CCCN1C(=O)[C@@H](N)CC(N)=O [DICAM 2, Asn- Pro -Glu-NH-C18H37 ·HCl] | 46.7 ± 0.7 | +++ | +++ | 4.1 ± 0.6 µM | 10.7 ± 0.4 |  |  | 4.6 ± 0.1 | ≥ 4.6 | 99.2%–99.8 |  |  |  |  |
| CCCCCCCCCCCCCCCCCCNC(=O)[C@H](CCC(=O)O)NC(=O)[C@H]1CCCN1C(=O)[C@H](C)NC(=O)OCc1ccccc1 [DICAM 3, Cbz-Ala- Pro -Glu-NH-C18H37] | 75 ± 13 | +++ | +++ | 6.5 ± 0.5 µM | 7.8 ± 0.4 | 2 to 2.5 | ≈ 90% | 1.51 ± 0.04 |  |  |  |  |  |  |
| CCCCCCCCCCCCCCCCCCNC(=O)[C@H](CCC(=O)O)NC(=O)[C@H]1CCCN1C(=O)[C@H](C)N [DICAM 4, Ala- Pro -Glu-NH-C18H37 ·HCl] | 65 ± 3 | +++ | +++ | 4 ± 1.5 µM | 13 ± 2 |  |  | 6.0 ± 0.4 | ≥ 4.6 | 99.2%–99.8 | ≥ 99.999 | less than 1 h |  |  |
| CCCCCCCCCCCCCCCCNC(=O)[C@H](CCC(=O)O)NC(=O)[C@H]1CCCN1C(=O)[C@H](CC(N)=O)NC(=O)OCc1ccccc1 [DICAM 10, Cbz-Asn- Pro -Glu-NH-C16H33] | 45 ± 1 | +++ | +++ | 3.4 ± 0.5 µM | 6.5 ± 0.3 | 2 to 2.5 | ≈ 90% | 3.13 ± 0.06 |  |  |  |  |  |  |
| CCCCCCCCCCCCCCCCCCNC(=O)[C@H](C)NC(=O)[C@H]1CCCN1C(=O)[C@H](C)N [DICAM 14, Ala- Pro -Ala-NH-C18H37 · HCl] | 7.69 ± 0.06 | +++ | +++ | ∼33 µM |  |  |  |  |  |  |  |  |  |  |
| CCCCCCCCCCCCCCCCCCNC(=O)[C@H](CCC(=O)O)NC(=O)[C@H]1CCCN1C(=O)[C@H](CCC(=O)O)NC(=O)OCc1ccccc1 [DICAM 19, Cbz-Glu- Pro -Glu-NH-C18H37] | 44 ± 1 | +++ | +++ | 3.0 ± 0.8 µM | ~5 |  |  | 3.0 ± 0.2 |  | 99.2%–99.8 |  |  | > 99.5 |  |
| CCCCCCCCCCCCCCCCCCNC(=O)[C@H](CCC(=O)O)NC(=O)[C@H]1CCCN1C(=O)[C@@H](N)CCC(=O)O [DICAM 20, Glu- Pro -Glu-NH-C18H37 · HCl] | 78.6 ± 0.1 | +++ | +++ | 3.0 ± 0.7 µM | 4.4 ± 0.6 |  |  | 3.0 ± 0.1 |  | 99.2%–99.8 |  |  |  | > 99.5 |
| CCCCCCCCCCCCCCCCCCNC(=O)[C@H](CCC(=O)O)NC(=O)[C@H]1CCCN1C(=O)[C@H](CCCN)NC(=O)OCc1ccccc1 [DICAM 21, Cbz-Orn- Pro -Glu-NH-C18H37] | 86 ± 15 | +++ | +++ | 8 ± 1 µM | 9 ± 1 |  |  | 1.9 ± 0.1 |  |  |  |  |  |  |
| CCCCCCCCCCCCCCCCCCNC(=O)[C@H](CCC(=O)O)NC(=O)[C@H]1CCCN1C(=O)[C@@H](N)CCCN [DICAM 22, Orn- Pro -Glu-NH-C18H37 · HCl] | 58 ± 0.4 | ++ | +++ | 20 ± 8 µM | 22 ± 8 |  |  | 1.4 ± 0.4 |  |  |  |  |  |  |
| CCCCCCCCCCCCCCCCCCNC(=O)[C@H](CCC(=O)O)NC(=O)[C@H]1CCCN1C(=O)[C@H](C)NC(C)=O [DICAM 24, Ac-Ala- Pro -Glu-NH-C18H37] | 43.8 ± 0.6 | +++ | +++ | 4 ± 0.8 µM | 6.1 ± 0.6 |  |  | 2.2 ± 0.1 |  |  |  |  |  |  |
